Laboratory results taken from patent US6423711B1 (dated 2002).
Counter-ions that a name gives are not always drawn.

Compound	melting point
CCOc1ccc(-c2cc(N3CCC(C(=O)NCc4ccccn4)CC3)c3sccc3n2)cc1.Cl	178 to 180 °C (dec.)
COCCCNC(=O)C1CCN(c2cc(-c3ccccc3)nc3ccsc23)CC1.Cl	147 to 149 °C (dec.)
COC(=O)C1CCN(c2cc(-c3ccccc3)nc3sccc23)CC1.Cl	> 220 °C (dec.)
c1ccc(-c2cc(N3CCOCC3)c3sccc3n2)cc1 (as salt: hydrochloride)	195 to 198 °C
Cl.O=C(NC1CC1)C1CCN(c2cc(-c3ccccc3)nc3ccsc23)CC1	199 to 201 °C (dec.)
CCNCCNC(=O)C1CCN(c2cc(-c3ccccc3)nc3ccsc23)CC1.Cl	> 95 °C (dec.)
CCNC(=O)C1CCN(c2cc(-c3ccccc3)nc3cccnc23)CC1.Cl	> 210 °C (dec.)
Cl.O=C(NCc1ccc(F)cc1)C1CCN(c2cc(-c3ccccc3)nc3ccsc23)CC1	190 to 192 °C (dec.)
O=C(NC1CCCC1)C1CCN(c2cc(-c3ccccc3)nc3ccsc23)CC1 (as salt: hydrochloride)	179 to 181 °C (dec.)
NC(=O)C1CCN(c2cc(-c3ccccc3F)nc3ccsc23)CC1	194 to 195 °C
Cl.O=C(NCc1cccs1)C1CCN(c2cc(-c3ccccc3)nc3ccsc23)CC1	> 230 °C (dec.)
Cl.O=C(NCCCCl)N1CCN(c2cc(-c3ccc(F)cc3)nc3ccsc23)CC1	235 to 238 °C (dec.)
CCNC(=O)N1CCN(c2cc(-c3cccc(OC)c3)nc3ccsc23)CC1.Cl	> 198 °C
Cl.O=C(NCc1cccc(F)c1)C1CCN(c2cc(-c3ccccc3)nc3ccsc23)CC1	236 to 238 °C (dec.)
NC(=O)C1CCN(c2cc(-c3ccc(F)cc3)nc3ccsc23)CC1 (as salt: hydrochloride)	> 303 °C (dec.)
CCOc1ccc(-c2cc(N3CCC(C(N)=O)CC3)c3sccc3n2)cc1.Cl	211 to 213 °C (dec.)
CCNC(=O)N1CCN(c2cc(-c3ccc(F)cc3)nc3ccsc23)CC1.Cl	> 147 °C (dec.)
COc1cccc(-c2cc(N3CCN(C(=O)c4ccncc4)CC3)c3sccc3n2)c1 (as salt: hydrochloride)	215 to 217 °C
O=C(NCC1CCCO1)C1CCN(c2cc(-c3ccccc3)nc3ccsc23)CC1 (centres unmarked) (as salt: hydrochloride)	> 210 °C (dec.)
Cl.O=C(NCCO)C1CCN(c2cc(-c3ccccc3)nc3ccsc23)CC1	> 220 °C (dec.)
COc1cccc(-c2cc(N3CCN(C(=O)c4ccc(F)cc4)CC3)c3sccc3n2)c1 (as salt: hydrochloride)	> 174 °C (dec.)
CCCNC(=O)C1CCN(c2cc(-c3ccccc3)nc3ccsc23)CC1.Cl	159 to 160 °C (dec.)

Compound	melting point
CCNC(=O)C1CCN(c2cc(-c3ccc(F)cc3)nc3ccsc23)CC1.Cl	220 to 222 °C (dec.)
CN(C)CCNC(=O)C1CCN(c2cc(-c3ccc(F)cc3)nc3ccsc23)CC1.Cl	180 to 182 °C (dec.)
CC(C)(C)NC(=O)C1CCN(c2cc(-c3ccccc3)nc3ccsc23)CC1.Cl	270 to 272 °C (dec.)
CNC(=O)C1CCN(c2cc(-c3ccccc3)nc3ccsc23)CC1.Cl	> 260 °C (dec.)
NC(=O)C1CCN(c2cc(-c3ccc(F)cc3)nc3ccsc23)CC1	251 to 253 °C
CCCNC(=O)C1CCN(c2cc(-c3ccc(F)cc3)nc3ccsc23)CC1.Cl	207 to 209 °C (dec.)
Cl.NC(=O)C1CCN(c2cc(-c3ccccc3)nc3ccsc23)CC1	303 to 305 °C (dec.)
Cl.NCCNC(=O)C1CCN(c2cc(-c3ccccc3)nc3ccsc23)CC1	176 to 178 °C (dec.)
Cl.NCCNC(=O)C1CCN(c2cc(-c3ccc(F)cc3)nc3ccsc23)CC1	115 to 118 °C (dec.)
O=C(NCc1ccncc1)C1CCN(c2cc(-c3ccccc3)nc3ccsc23)CC1 (as salt: hydrochloride)	176 to 178 °C (dec.)
Cl.O=C(NCc1ccccc1)C1CCN(c2cc(-c3ccccc3)nc3ccsc23)CC1	163 to 165 °C (dec.)
CCNC(=O)C1CCN(c2cc(-c3ccncc3)nc3ccsc23)CC1.Cl	> 227 °C (dec.)
Cl.O=C(NCCO)C1CCN(c2cc(-c3ccc(F)cc3)nc3ccsc23)CC1	198 to 200 °C (dec.)
CN(C)CCNC(=O)C1CCN(c2cc(-c3ccccc3)nc3ccsc23)CC1.Cl	> 150 °C (dec.)
Cc1ccc(CNC(=O)C2CCN(c3cc(-c4ccccc4)nc4ccsc34)CC2)cc1.Cl	177 to 178 °C (dec.)
CNC(=O)N1CCN(c2cc(-c3ccccc3)nc3ccsc23)CC1.Cl	185 to 190 °C
CCNC(=O)C1CCN(c2cc(-c3cccc(OC)c3)nc3ccsc23)CC1.Cl	> 230 °C (dec.)
COc1cccc(-c2cc(N3CCC(C(N)=O)CC3)c3sccc3n2)c1.Cl	133 to 135 °C (dec.)
CCNC(=O)N1CCN(c2cc(-c3ccccc3)nc3ccsc23)CC1.Cl	> 240 °C (dec.)
CCCCNC(=O)C1CCN(c2cc(-c3ccccc3)nc3ccsc23)CC1.Cl	170 to 172 °C (dec.)
COC(C)CNC(=O)C1CCN(c2cc(-c3ccc(F)cc3)nc3ccsc23)CC1 (centres unmarked) (as salt: hydrochloride)	179 to 180 °C (dec.)
COCCNC(=O)C1CCN(c2cc(-c3ccccc3)nc3ccsc23)CC1 (as salt: hydrochloride)	157 to 160 °C (dec.)
